These results are taken from patent US11629145B2, “SHP2 phosphatase inhibitors and methods of use thereof” (Relay Therapeutics, Inc., priority 2016, dated 2023).

Structures are written as SMILES.

This experiment deals with SHP2 (Homo sapiens (Human), UniProt Q06124). Description: SHP2 Allosteric Inhibition Assay. The format is biochemical. The note with it: 0.25 nM SHP2 activated with 0.5 μM bis-phosphorylated IRS1 peptide; DiFMUP substrate, prompt fluorescence.
Chain of SHP2 (Q06124 whole entry): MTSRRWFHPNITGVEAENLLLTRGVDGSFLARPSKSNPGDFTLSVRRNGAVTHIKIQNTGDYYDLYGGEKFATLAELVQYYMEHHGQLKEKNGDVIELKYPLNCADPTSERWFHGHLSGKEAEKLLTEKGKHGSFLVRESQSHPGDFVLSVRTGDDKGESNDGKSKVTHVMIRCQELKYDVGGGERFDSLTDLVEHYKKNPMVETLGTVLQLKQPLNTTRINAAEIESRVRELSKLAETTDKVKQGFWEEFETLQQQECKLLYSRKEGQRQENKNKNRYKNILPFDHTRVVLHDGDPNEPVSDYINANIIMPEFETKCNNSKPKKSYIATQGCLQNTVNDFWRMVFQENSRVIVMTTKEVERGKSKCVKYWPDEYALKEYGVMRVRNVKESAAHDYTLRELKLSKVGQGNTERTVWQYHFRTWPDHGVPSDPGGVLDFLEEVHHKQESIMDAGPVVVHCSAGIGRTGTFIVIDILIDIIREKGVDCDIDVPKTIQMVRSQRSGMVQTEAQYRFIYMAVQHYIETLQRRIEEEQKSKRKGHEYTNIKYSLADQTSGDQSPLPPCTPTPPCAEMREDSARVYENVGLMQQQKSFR
`CC1(N)CCN(c2cnc3c(OC4CCCNC4)n[nH]c3n2)CC1` (stereo not drawn) [Compound 21] displayed an IC50 of no less than 10000 nM.
On to `Cc1nccc(Oc2n[nH]c3nc(N4CC[C@@H](N)C[C@@H]4C)cnc23)c1Cl` [Compound 38], for which the IC50 is less than 1000 nM.
Take `COc1ccc(Cn2nc(Oc3ccnc(Cl)c3Cl)c3ncc(N4CC[C@@H](N)C[C@@H]4C)nc32)cc1` [Compound 63]: the IC50 was no less than 10000 nM.
The figure for `Cn1cc(-c2nccc(Oc3n[nH]c4nc(N5CCC(C)(N)CC5)cnc34)c2Cl)cn1` [Compound 60] is less than 1000 nM; for `Cc1cc(Oc2n[nH]c3nc(N4CCC(C)(N)CC4)cnc23)ccn1` [Compound 23] it is less than 1000 nM.
The figure for `CC(=O)N1CCCC(Oc2n[nH]c3nc(N4CCC(C)(N)CC4)cnc23)C1` (stereo not drawn) [Compound 35] is 1000 to 10000 nM; for `CC1(N)CCN(c2cnc3c(Oc4ccc(N)cc4Cl)n[nH]c3n2)CC1` [Compound 36] it is less than 1000 nM; for `CC1(N)CCN(c2cnc3c(Oc4ccccc4Cl)n[nH]c3n2)CC1` [Compound 31] it is less than 1000 nM.
With `CC1(N)CCN(c2cnc3c(Oc4ccncc4C(F)(F)F)n[nH]c3n2)CC1` [Compound 51] the figure was less than 1000 nM.
Consider `CC1(N)CCN(c2cnc3c(Oc4ncccc4C#N)n[nH]c3n2)CC1` [Compound 27], for which the IC50 is less than 1000 nM.
The figure for `COc1nccc(Oc2n[nH]c3nc(N4CCC(C)(N)CC4)cnc23)c1C#N` [Compound 47] is less than 1000 nM; for `CC1(N)CCN(c2cnc3c(Oc4ccc(N)cc4C#N)n[nH]c3n2)CC1` [Compound 34] it is less than 1000 nM; for `Cc1nccc(Oc2n[nH]c3nc(N4CCC(C)(N)CC4)cnc23)c1C` [Compound 29] it is less than 1000 nM.
With `CC1(N)CCN(c2cnc3c(Oc4ccnc(C(N)=O)c4Cl)n[nH]c3n2)CC1` [Compound 55] the figure was less than 1000 nM; with `CC1(N)CCN(c2cnc3c(OCc4ccccc4C#N)n[nH]c3n2)CC1` [Compound 33], less than 1000 nM.
With `NCC1(O)CCN(c2cnc3c(Oc4ccnc(Cl)c4Cl)n[nH]c3n2)CC1` [Compound 57] the figure was less than 1000 nM; with `CC1(N)CCN(c2cnc3c(Oc4ccnc(NC5COC5)c4Cl)n[nH]c3n2)CC1` [Compound 58], 1000 to 10000 nM.
Consider `Cc1nccc(Oc2n[nH]c3nc(N4CCC(O)(CN)CC4)cnc23)c1Cl` [Compound 49], for which the IC50 is less than 1000 nM.
Take `CC1(N)CCN(c2cnc3c(OCc4cccnc4)n[nH]c3n2)CC1` [Compound 25]: the IC50 lay in the range of 1000 to 10000 nM.
With `CC1(N)CCN(c2cnc3c(OCc4ccccc4)n[nH]c3n2)CC1` [Compound 22] the figure was less than 1000 nM; with `CC1(CN)CCN(c2cnc3c(Oc4ccnc(N)c4Cl)n[nH]c3n2)C1` (stereo not drawn) [Compound 43], less than 1000 nM; with `CC1(N)CCN(c2cnc3c(Oc4cc(N)ncc4Cl)n[nH]c3n2)CC1` [Compound 42], less than 1000 nM.
With `CC1(N)CCN(c2cnc3c(Oc4ccnc(N5CCOCC5)c4Cl)n[nH]c3n2)CC1` [Compound 62] the figure was less than 1000 nM; with `COc1ccc(Cn2nc(Oc3ccnc(Cl)c3Cl)c3ncc(N4CCC(O)(CN)CC4)nc32)cc1` [Compound 64], no less than 10000 nM; with `Cc1nccc(Oc2n[nH]c3nc(N4CCC(C)(N)CC4)cnc23)c1Cl` [Compound 39], less than 1000 nM.
With `CC1(N)CCN(c2cnc3c(Oc4cccc(C(F)F)n4)n[nH]c3n2)CC1` [Compound 44] the figure was 1000 to 10000 nM; with `CC1(N)CCN(c2cnc3c(Oc4ccccc4)n[nH]c3n2)CC1` [Compound 20], less than 1000 nM.
`CC1(N)CCN(c2cnc3c(OCc4ccncc4Cl)n[nH]c3n2)CC1` [Compound 40] registered an IC50 of less than 1000 nM.
Compound `CC1(CN)CCN(c2cnc3c(Oc4ccnc(N)c4Cl)n[nH]c3n2)CC1` [Compound 48] registered an IC50 of less than 1000 nM.
The compound `CC1(N)CCN(c2cnc3c(Oc4ccncc4Cl)n[nH]c3n2)CC1` [Compound 32] yielded an IC50 of less than 1000 nM.
With `COc1nccc(Oc2n[nH]c3nc(N4CCC(C)(N)CC4)cnc23)c1Cl` [Compound 50] the figure was less than 1000 nM; with `CC1(N)CCN(c2cnc3c(N4CCCCc5ccccc54)n[nH]c3n2)CC1` [Compound 82], less than 1000 nM.
With `CC1(N)CCN(c2cnc3c(Oc4cc(Br)ncc4Cl)n[nH]c3n2)CC1` [Compound 59], the IC50 was less than 1000 nM.
For `CC1(CN)CCN(c2cnc3c(Oc4ccnc(Cl)c4Cl)n[nH]c3n2)C1` (stereo not drawn) [Compound 52], the IC50 was less than 1000 nM.
The figure for `Cc1cc(Oc2n[nH]c3nc(N4CCC(C)(N)CC4)cnc23)c(Cl)cn1` [Compound 37] is less than 1000 nM; for `CC1(N)CCN(c2cnc3c(OCc4cccnc4N)n[nH]c3n2)CC1` [Compound 30] it is less than 1000 nM.
Regarding `CC1(N)CCN(c2cnc3c(Oc4ccnc(O)c4Cl)n[nH]c3n2)CC1` [Compound 45], the IC50 is less than 1000 nM.
With `CC1(N)CCN(c2cnc3c(Oc4ccnc(Cl)c4Cl)n[nH]c3n2)CC1` [Compound 54] the figure was less than 1000 nM; with `CC1(N)CCN(c2cnc3c(Oc4ccnc(-c5nccs5)c4Cl)n[nH]c3n2)CC1` [Compound 61], less than 1000 nM; with `Cc1cnccc1Oc1n[nH]c2nc(N3CCC(C)(N)CC3)cnc12` [Compound 24], less than 1000 nM.
The figure for `CC1(N)CCN(c2cnc3c(Oc4ccccc4C#N)n[nH]c3n2)CC1` [Compound 26] is less than 1000 nM.
The figure for `CC1(CN)CCN(c2cnc3c(Oc4ccnc(Cl)c4Cl)n[nH]c3n2)CC1` [Compound 56] is less than 1000 nM; for `CC1(N)CCN(c2cnc3c(OCc4cccc5[nH]ccc45)n[nH]c3n2)CC1` [Compound 46] it is less than 1000 nM; for `CC(Oc1n[nH]c2nc(N3CCC(C)(N)CC3)cnc12)c1ccccc1` (stereo not drawn) [Compound 28] it is less than 1000 nM.
`C[C@H]1C[C@H](N)CCN1c1cnc2c(Oc3ccnc(Cl)c3Cl)n[nH]c2n1` [Compound 53] yielded an IC50 of less than 1000 nM.
